# Measured values taken from patent US20170368082A1, “FORMULATIONS OF BRINCIDOFOVIR” (priority 2016, published 2017).
# Read-outs that look alike come from different tables or passages of the source.
# Test: Phase 2 toxicokinetics of brincidofovir and cidofovir in plasma
# Assay type: in vivo, Sprague-Dawley CD rats
# Settings: plasma; for AUC(0-t) / Cmax / Tmax / concentration at 1 h / concentration at 2 h / concentration at 8 h / concentration at 24 h / concentration at 0 h: Sprague-Dawley CD, rat; for AUC(0-t) / Cmax / Tmax: iv, brincidofovir in plasma; for Tmax: read-out: Tmax; for concentration at 1 h / concentration at 2 h / concentration at 8 h / concentration at 24 h / concentration at 0 h: intravenous
# Description: Plasma samples (108) were collected 2 hours following the initiation of dosing on Day 1 and Day 7 (Group 1), or at 1, 2, 8, and 24 hours following the initiation of dosing on Day 1, and prior to administration and at 2, 8, and 24 hours following the initiation of dosing on Day 7 (Groups 2 and 3), and analyzed to determine the concentrations of brincidofovir and the metabolite, cidofovir), by LC/MS/MS.
# Approximately 0.4 mL of whole blood was obtained via the tail vein from each animal at each time point. Animals were not fasted prior to blood collection. Blood was collected into tubes containing K2EDTA anticoagulant and placed on wet ice in an upright position, per facility SOP prior to processing. Plasma was separated by centrifugation (10 minutes at approximately 2000 g, at approximately 2-8° C.). Approximately 0.10 mL of plasma was transferred into a single cryotube appropriately labeled with study number, animal number, time point, date of sampling and sample type. Remaining plasma was transferred into a second cryotube and retained as a backup sample. Plasma frozen at approximately −80±10° C. within approximately 2 hours after collection of each blood sample until analysis. Animals were euthanized (CO2 inhalation) after the final blood collection.
# In general, TK parameters were estimated using mean plasma concentrations of brincidofovir and cidofovir derived from the composite blood sampling design using Phoenix WinNonLin (V 6.3).
# A composite blood sampling design was used such that each rat was sampled twice per sampling day. Blood was collected via tail vein from unanesthetized animals into tubes containing anticoagulant and placed on wet ice in an upright position. Animals were not fasted prior to blood collection. Plasma was separated by centrifugation (for 10 minutes at approximately 2000 g, at approximately 2-8° C.), and transferred into individually labeled cryotubes. All cryotubes containing the collected plasma samples were appropriately labeled as to study number, animal number, time point, date of sampling and sample type. All plasma samples were obtained and frozen at approximately −80° C. (±10° C.) within approximately 2 hours after collection of each blood sample until analysis.
# Rat plasma bioanalysis was conducted by Pyxant Laboratories. Plasma samples were analyzed for concentrations of brincidofovir and cidofovir using a method based upon protein precipitation extraction followed by LC-MS/MS analysis; calibration ranges for brincidofovir and cidofovir were 1.00-1500 ng/mL and 5.00-750 ng/mL, respectively, (Pyxant study number 3025) for a 50 μL aliquot of rat plasma. Sample analysis for ISR was not performed as part of this non-GLP study.
# For the generation of Mean Profiles, all sample concentrations that were below the limit of quantitation (BLQ) were set to 0.
# All pharmacokinetic parameter estimates were completed using a Non-Compartmental Model (Model 200-202 for IV infusion administration). The AUClast and AUCinf were calculated using the linear up log down trapezoidal rule.
# [1] = female, 15 mg/kg, 15 mg/kg 2-hour IV infusion, Female rats, Day 1
# [2] = female, 15 mg/kg, 15 mg/kg 2-hour IV infusion, Female rats, Day 7
# [3] = male, 1 mg/kg, brincidofovir 1 mg/kg 2-h IV infusion, male rats, Day 1, BLQ imputed as zero, read-out: Imputed Concentration, Mean
# [4] = male, 1 mg/kg, brincidofovir 1 mg/kg 2-h IV infusion, male rats, Day 1, BLQ imputed as zero, read-out: Imputed Concentration, individual animals
# [5] = male, 1 mg/kg, 1 mg/kg 2-hour IV infusion, Male rats, Day 1
# [6] = male, 1 mg/kg, 1 mg/kg 2-hour IV infusion, Male rats, Day 7
# [7] = male, 15 mg/kg, 15 mg/kg 2-hour IV infusion, Male rats, Day 1
# [8] = male, 15 mg/kg, 15 mg/kg 2-hour IV infusion, Male rats, Day 7
structure (smiles),measurement,setting,value
CCCCCCCCCCCCCCCCOCCCOP(=O)(O)CO[C@H](CO)Cn1ccc(N)nc1=O [Brincidofovir],AUC(0-t),[1],7.36 µg·h/mL
same,Cmax,[1],3.47 µg/mL
same,Tmax,[1],1 h
same,AUC(0-t),[2],3.42 µg·h/mL
same,Cmax,[2],1.66 µg/mL
same,Tmax,[2],2 h
same,concentration at 1 h,[3],0.227 µg/mL
same,concentration at 1 h,[4],0.156 µg/mL
same,concentration at 2 h,[3],0.235 µg/mL
same,concentration at 2 h,[4],0.22 µg/mL
same,concentration at 8 h,"male, 1 mg/kg, brincidofovir 1 mg/kg 2-h IV infusion, male rats, Day 1, 8 h, BLQ imputed as zero, read-out: Imputed Concentration, Mean",0 µg/mL
same,concentration at 8 h,"male, 1 mg/kg, brincidofovir 1 mg/kg 2-h IV infusion, male rats, Day 1, 8 h, BLQ imputed as zero, read-out: Imputed Concentration, individual animals",0 µg/mL
same,concentration at 24 h,"male, 1 mg/kg, brincidofovir 1 mg/kg 2-h IV infusion, male rats, Day 1, 24 h, BLQ imputed as zero, read-out: Imputed Concentration, Mean",0 µg/mL
same,concentration at 24 h,"male, 1 mg/kg, brincidofovir 1 mg/kg 2-h IV infusion, male rats, Day 1, 24 h, BLQ imputed as zero, read-out: Imputed Concentration, individual animals",0 µg/mL
same,concentration at 0 h,"male, 1 mg/kg, brincidofovir 1 mg/kg 2-h IV infusion, male rats, Day 7, 0 h, BLQ imputed as zero, read-out: Imputed Concentration, Mean",0 µg/mL
same,concentration at 0 h,"male, 1 mg/kg, brincidofovir 1 mg/kg 2-h IV infusion, male rats, Day 7, 0 h, BLQ imputed as zero, read-out: Imputed Concentration, individual animals",0 µg/mL
same,concentration at 24 h,"male, 15 mg/kg, brincidofovir 15 mg/kg, Male, Day 1, 24 h, read-out: brincidofovir Imputed Mean Concentration (IMC)",0.00122 µg/mL
same,concentration at 24 h,"male, 15 mg/kg, brincidofovir 15 mg/kg, Male, Day 1, 24 h, read-out: brincidofovir Mean Concentration (MC)",0.00122 µg/mL
same,concentration at 8 h,"male, 15 mg/kg, brincidofovir 15 mg/kg, Male, Day 7, 8 h, read-out: brincidofovir Imputed Mean Concentration (IMC)",0.00872 µg/mL
same,concentration at 24 h,"male, 15 mg/kg, brincidofovir 15 mg/kg, Male, Day 7, 24 h, read-out: brincidofovir Imputed Mean Concentration (IMC)",0.00145 µg/mL
same,concentration at 24 h,"male, 15 mg/kg, brincidofovir 15 mg/kg, Male, Day 7, 24 h, read-out: brincidofovir Mean Concentration (MC)",0.00145 µg/mL
same,concentration at 8 h,"male, 15 mg/kg, 15 mg/kg, male rats, Day 1, 8 h, read-out: C (Concentration), individual animals",0.0107 µg/mL
same,concentration at 8 h,"male, 15 mg/kg, 15 mg/kg, male rats, Day 1, 8 h, read-out: IC (Imputed Concentration), individual animals",0.0107 µg/mL
same,concentration at 24 h,"male, 15 mg/kg, 15 mg/kg, male rats, Day 1, 24 h, read-out: C (Concentration), individual animals",0.0012 µg/mL
same,concentration at 24 h,"male, 15 mg/kg, 15 mg/kg, male rats, Day 1, 24 h, read-out: IC (Imputed Concentration), individual animals",0.0012 µg/mL
same,concentration at 8 h,"male, 15 mg/kg, 15 mg/kg, male rats, Day 7, 8 h, read-out: C (Concentration), individual animals",0.00982 µg/mL
same,concentration at 8 h,"male, 15 mg/kg, 15 mg/kg, male rats, Day 7, 8 h, read-out: IC (Imputed Concentration), individual animals",0.00982 µg/mL
same,concentration at 24 h,"male, 15 mg/kg, 15 mg/kg, male rats, Day 7, 24 h, read-out: C (Concentration), individual animals",0.00185 µg/mL
same,concentration at 24 h,"male, 15 mg/kg, 15 mg/kg, male rats, Day 7, 24 h, read-out: IC (Imputed Concentration), individual animals",0.00185 µg/mL
same,Cmax,[5],0.235 µg/mL
same,Tmax,[5],2 h
same,Cmax,[6],0.208 µg/mL
same,Tmax,[6],2 h
same,AUC(0-t),[7],8.78 µg·h/mL
same,Cmax,[7],4.37 µg/mL
same,Tmax,[7],1 h
same,AUC(0-t),[8],4.09 µg·h/mL
same,Cmax,[8],1.91 µg/mL
same,Tmax,[8],2 h
same,"C (Concentration), individual animals","1 mg/kg, female rats, Day 1, 8 h, listed as BCV, 1 mg/kg",BLQ
same,"C (Concentration), individual animals","1 mg/kg, female rats, Day 1, 24 h",BLQ
same,"C (Concentration), individual animals","1 mg/kg, female rats, Day 7, 0 h",BLQ
same,"C (Concentration), individual animals","1 mg/kg, female rats, Day 7, 8 h, listed as BCV, 1 mg/kg",BLQ
same,"C (Concentration), individual animals","1 mg/kg, female rats, Day 7, 24 h",BLQ
same,"C (Concentration), individual animals","1 mg/kg, male rats, Day 1, 8 h",BLQ
same,"C (Concentration), individual animals","1 mg/kg, male rats, Day 1, 24 h",BLQ
same,"C (Concentration), individual animals","1 mg/kg, male rats, Day 7, 0 h",BLQ
same,"C (Concentration), individual animals","1 mg/kg, male rats, Day 7, 8 h",BLQ
same,"C (Concentration), individual animals","1 mg/kg, male rats, Day 7, 24 h",BLQ
same,"C (Concentration), individual animals","15 mg/kg, female rats, Day 7, 0 h",BLQ
